According to PMC7614683, “A small molecule PI3Kα activator for cardioprotection and neuroregeneration” (Nature, 2023):

How the values were obtained:
HeLa cells = assay: TIRF microscopy of PIP3 and PI(3,4)P2 reporters, HeLa; assay type: cell-based, human
Method: Phosphoinositide reporters used were GFP-PH-ARNO^I303Ex2 (PIP3 reporter[41]) and mCherry-cPH-TAPP1x3 (PI(3,4)P2 reporter[41]). TIRF microscopy allows selective imaging of the small cell volume, including the plasma membrane, directly adjacent to the coverslip onto which cells have been seeded. HeLa or A549 cells were seeded in Matrigel-coated (Corning #354230; diluted in Opti-MEM at 1:50) 8-well chamber slides (glass bottom, 1.55 refractive index; Thermo Fisher Scientific #155409) at a density of 5,000 cells/well. […]
Image analyses of total reporter intensities were performed with the Fiji open source image analysis package. The region of interest (ROI) corresponding to the footprint of the individual cell across time points were defined using minimal intensity projection to select only pixels present across all time points, following prior subtraction of camera noise (rolling ball method, radius = 500 pixels) and xy drift correction, intensity levels over time were measured. […] All other quantifications were performed using the open source software R/RStudio. The values plotted in Fig. 3d (iii) represent mean±SEM, following signal scaling to minimum and maximum values of the normalised fluorescence intensity for each time point (Fn(t)). […]

ATM = biological target: T1, ATM (Homo sapiens, UniProt Q13315); assay: ATM in vitro kinase assay (Phos-tag gel); assay type: biochemical; settings: 200 μM 1938
T1 construct: made in house
Method: 133 protein kinases and 7 lipid kinases were counterscreened, with 1938 used at 1 μM, using the Adapta, Lantha and Z-LYTE assays (SelectScreen Kinase Profiling Service; Thermofisher – experimental details of these assays can be found here: https://www.thermofisher.com/uk/en/home/industrial/pharma-biopharma/drug-discovery-development/target-and-lead-identification-and-validation/kinasebiology/kinase-activity-assays.html. The tree represention in KinMap[59] generated courtesy of Cell Signaling Technology, Inc. (www.cellsignal.com). mTORC1 (mTOR/RAPTOR/LST8) protein complex and ATM kinase and substrates were produced as previously described[57],[60]. Screening of 1938 was conducted using SuperSep Phos-Tag 50 μmol/l 100 x 100 x 6.6 mm 17-well (192-18001/199-18011) gels. For ATM assays, 100 nM ATM was incubated for 30 min at 30°C with 5 μM GST-p53 and 1 mM ATP, in the absence or presence of 200 μM 1938 in ATM Kinase Buffer (50 mM HEPES pH 7.5, 100 mM NaCl, 10% glycerol, 2 mM […], 5 mM MgCl2). As a positive control for ATM activation, the same reaction was carried out with 100 nM ATM/5 μM GST-p53/1 mM ATP in the presence of 100 nM Mre11-Rad50-Nbs1 (MRN) complex, a known activator of ATM[61]. […] Gels were then stained using InstantBlue™ Coomassie, and quantified using BioRad Image Lab Software. […]

T1 sequence (Q13315 whole entry): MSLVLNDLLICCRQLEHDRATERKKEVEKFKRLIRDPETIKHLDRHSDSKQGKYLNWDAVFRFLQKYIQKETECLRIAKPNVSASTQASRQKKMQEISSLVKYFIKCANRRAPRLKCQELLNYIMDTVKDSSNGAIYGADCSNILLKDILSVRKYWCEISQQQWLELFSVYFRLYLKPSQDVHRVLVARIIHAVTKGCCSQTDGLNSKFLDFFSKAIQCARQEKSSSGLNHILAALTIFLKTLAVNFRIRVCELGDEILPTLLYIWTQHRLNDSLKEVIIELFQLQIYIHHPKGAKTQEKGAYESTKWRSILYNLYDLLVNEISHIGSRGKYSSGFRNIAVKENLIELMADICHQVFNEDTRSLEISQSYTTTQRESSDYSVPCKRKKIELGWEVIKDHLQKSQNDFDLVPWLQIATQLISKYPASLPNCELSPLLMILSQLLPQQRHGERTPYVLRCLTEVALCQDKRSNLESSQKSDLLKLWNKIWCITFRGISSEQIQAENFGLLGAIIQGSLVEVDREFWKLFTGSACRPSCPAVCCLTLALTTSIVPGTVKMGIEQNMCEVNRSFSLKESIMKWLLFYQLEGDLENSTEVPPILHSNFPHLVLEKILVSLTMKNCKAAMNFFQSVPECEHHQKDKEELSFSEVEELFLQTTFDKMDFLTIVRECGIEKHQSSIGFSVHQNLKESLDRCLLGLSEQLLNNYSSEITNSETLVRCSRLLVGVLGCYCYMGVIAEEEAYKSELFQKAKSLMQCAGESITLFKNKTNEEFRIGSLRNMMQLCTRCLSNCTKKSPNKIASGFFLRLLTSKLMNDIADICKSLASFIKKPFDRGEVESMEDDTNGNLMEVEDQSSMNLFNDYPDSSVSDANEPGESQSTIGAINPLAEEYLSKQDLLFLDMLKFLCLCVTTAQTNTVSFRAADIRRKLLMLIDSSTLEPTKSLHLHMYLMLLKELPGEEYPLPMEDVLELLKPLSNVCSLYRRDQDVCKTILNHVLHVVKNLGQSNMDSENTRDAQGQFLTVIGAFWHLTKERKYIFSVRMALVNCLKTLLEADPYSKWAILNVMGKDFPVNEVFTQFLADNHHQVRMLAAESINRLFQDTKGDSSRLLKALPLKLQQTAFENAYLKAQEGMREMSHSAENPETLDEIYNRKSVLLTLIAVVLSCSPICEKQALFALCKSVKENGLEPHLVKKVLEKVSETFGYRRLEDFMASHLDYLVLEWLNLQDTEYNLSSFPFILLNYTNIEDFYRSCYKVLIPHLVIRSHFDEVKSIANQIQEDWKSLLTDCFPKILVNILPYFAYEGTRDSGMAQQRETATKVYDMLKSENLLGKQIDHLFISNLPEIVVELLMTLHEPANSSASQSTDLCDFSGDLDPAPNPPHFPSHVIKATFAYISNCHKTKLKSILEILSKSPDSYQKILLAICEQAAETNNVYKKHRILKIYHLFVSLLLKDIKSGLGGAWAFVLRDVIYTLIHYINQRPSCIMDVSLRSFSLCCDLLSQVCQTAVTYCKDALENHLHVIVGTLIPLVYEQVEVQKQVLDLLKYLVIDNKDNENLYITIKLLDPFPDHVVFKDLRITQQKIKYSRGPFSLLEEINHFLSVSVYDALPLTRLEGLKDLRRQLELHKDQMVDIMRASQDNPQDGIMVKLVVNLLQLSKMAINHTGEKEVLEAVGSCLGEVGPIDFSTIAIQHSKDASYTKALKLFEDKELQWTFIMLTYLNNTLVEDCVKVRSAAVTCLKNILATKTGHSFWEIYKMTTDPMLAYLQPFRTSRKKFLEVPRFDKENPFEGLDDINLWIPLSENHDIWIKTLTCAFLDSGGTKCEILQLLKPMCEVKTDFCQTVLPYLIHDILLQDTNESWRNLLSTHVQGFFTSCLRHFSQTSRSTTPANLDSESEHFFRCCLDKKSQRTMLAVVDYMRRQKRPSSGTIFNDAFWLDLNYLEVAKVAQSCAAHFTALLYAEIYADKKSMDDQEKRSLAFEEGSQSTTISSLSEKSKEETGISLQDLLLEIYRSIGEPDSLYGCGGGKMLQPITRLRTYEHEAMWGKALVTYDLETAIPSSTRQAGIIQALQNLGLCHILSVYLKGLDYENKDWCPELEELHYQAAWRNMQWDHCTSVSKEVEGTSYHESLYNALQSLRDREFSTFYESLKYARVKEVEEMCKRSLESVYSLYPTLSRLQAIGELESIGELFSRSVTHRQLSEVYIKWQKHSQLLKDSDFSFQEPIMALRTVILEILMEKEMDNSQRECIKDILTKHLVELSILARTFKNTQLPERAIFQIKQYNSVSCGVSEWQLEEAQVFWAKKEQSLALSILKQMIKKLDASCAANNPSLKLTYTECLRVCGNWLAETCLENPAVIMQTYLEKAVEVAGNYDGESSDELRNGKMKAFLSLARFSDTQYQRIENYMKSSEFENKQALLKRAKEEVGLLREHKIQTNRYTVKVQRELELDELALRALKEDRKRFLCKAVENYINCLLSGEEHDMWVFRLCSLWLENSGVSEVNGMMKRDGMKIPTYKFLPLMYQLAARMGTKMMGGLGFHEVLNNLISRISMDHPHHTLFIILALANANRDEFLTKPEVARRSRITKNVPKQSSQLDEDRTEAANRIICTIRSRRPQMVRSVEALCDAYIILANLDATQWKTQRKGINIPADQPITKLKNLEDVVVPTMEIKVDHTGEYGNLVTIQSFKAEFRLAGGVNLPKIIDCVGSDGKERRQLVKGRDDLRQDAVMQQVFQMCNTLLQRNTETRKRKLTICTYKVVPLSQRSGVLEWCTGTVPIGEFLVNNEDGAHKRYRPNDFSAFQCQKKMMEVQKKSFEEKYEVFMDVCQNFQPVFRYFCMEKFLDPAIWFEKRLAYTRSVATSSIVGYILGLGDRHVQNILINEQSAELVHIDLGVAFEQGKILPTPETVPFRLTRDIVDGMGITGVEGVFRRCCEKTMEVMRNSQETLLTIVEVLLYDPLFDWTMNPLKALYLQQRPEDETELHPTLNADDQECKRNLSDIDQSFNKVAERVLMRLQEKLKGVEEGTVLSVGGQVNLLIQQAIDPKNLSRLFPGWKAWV

CCN1CCN(c2ccc(Nc3cc(Nc4cccc5c4N(C(C)=O)CC5)ccn3)cc2)CC1 [Compound 1938]
membrane-associated PI(3,4)P2 (biosensor) (HeLa cells): generation of membrane-associated PI(3,4)P2
plasma membrane PIP3 (biosensor) (HeLa cells): acute and BYL719-sensitive burst of PIP3
effect on ATM activity (ATM): did not affect the activity
